Test system: tumor cells from right chest wall lesion (mammary carcinoma cells)
Experiment: Ex vivo drug response testing of fresh tumor specimen (DISC, MTT and redox assays)
Format: cell-based, human
Set-up: key to ASSAY RESULT: Sensitive: the drug inhibits the cell growth or proliferation of the cell to a greater degree than is expected for an appropriate control; Resistant: the drug inhibits the cell growth or proliferation of the cell to a lesser degree than is expected for an appropriate control
Details: for ASSAY RESULT: fresh tumor cells, compared with a database of assays of similar technical characteristics; for activity in vitro (in words): summary of the table
Description: An unfixed portion of the tumor was further analyzed for response to several drugs. A specimen consisted of 1 piece of yellow, white, and red tissue, obtained from the right chest wall lesion. The piece was soft and sticky in texture, measured 0.8×1.4 cm, and weighed 0.47 gm. The specimen was minced to individual pieces smaller than one mm with surgical scissors and digested for 1.3 hours with collagenase-DNAse. Viable tumor cells were enriched by Ficoll-diatriozate centrifugation. Cytospin slides were prepared, air-dried, and stained with Fast Green/Hamatoxyline-eosin. On this cytology preparation obtained from mechanically-dissociated, enzyme-digested tissue, there was a collection of somewhat pleomorphic tumor cells, consistent with mammary carcinoma cells. Tumor cells were present as loose cell clusters (60% of total tumor cells) and, less commonly, as discohesive single cells (40% of total tumor cells). The tumor cells measured 22-25 microns in diameter and had N/N+C ratios of 0.6-0.8. […] Nucleoli were variably prominent. There were no cells with large clear globular areas or secretory material within the cytoplasm. There was slight cytoplasmic and nuclear molding. Approximately 40% of the enriched tumor cell fraction consisted of normal-appearing connective tissue cells and inflammatory cells.
Cells were plated for testing in 3 different assay endpoints. In the DISC assay, the entire contents of the cell culture were cytocentrifuged onto permanent microscope slides and differentially stained to allow discrimination of normal and neoplastic cells and living and dead cells. […] The MTT assay measures mitochondrial metabolism in the entire cell culture. The redox assay measures total metabolic activity in the entire cell culture, using the Alamar Blue reagent to index the oxygen reduction potential of the culture medium. Because of the very low yield of viable tumor cells, only a small drug panel could be tested. Additionally, some drugs could be tested only in a single assay system.
At the conclusion of the culture period, there was 10% spontaneous attrition in viable tumor cell numbers. Formazan signal in the MTT assay was moderate, reflective of moderate cell metabolism, and allowing for an MTT assay of good quality. Percentage of tumor cells as a percentage of total viable cells at the conclusion of the culture was approximately 85. DISC and MTT assays were in reasonably good agreement. The overall technical quality of the assays was good, marred only by the low yield of tumor cells, which severely limited the scope of testing.
Results were compared with a database of assays which had similar technical characteristics, as the technical characteristics of these assays influence the in vitro results, along with the intrinsic drug resistance of the tumor cells. By controlling for technical characteristics such as spontaneous cell loss, metabolic signal at the conclusion of the culture, and tumor cell clustering, biological correlations are improved.

Compound | ASSAY RESULT | activity in vitro (in words) | activity in vitro (in words) (listed as paclitaxel (Taxol))
N.N.O=C([O-])C1(C(=O)[O-])CCC1.[Pt+2] [Carboplatin] | Resistant | poor activity | 
O=P1(N(CCCl)CCCl)NC(OO)CCO1 (centres unmarked) [Cyclophosphamide (4HC)] | Sensitive | above-average activity | 
COc1cccc2c1C(=O)c1c(O)c3c(c(O)c1C2=O)C[C@@](O)(C(=O)CO)C[C@@H]3O[C@H]1C[C@H](N)[C@H](O)[C@H](C)O1 [Doxorubicin] | Intermediate |  | 
COc1cc([C@@H]2c3cc4c(cc3[C@@H](O[C@@H]3O[C@@H]5CO[C@@H](C)O[C@H]5[C@H](O)[C@H]3O)[C@H]3COC(=O)[C@H]23)OCO4)cc(OC)c1O [Etoposide] | Sensitive | above-average activity | 
O=c1[nH]cc(F)c(=O)[nH]1 [Fluorouracil] | Intermediate |  | 
O=C1c2c(O)ccc(O)c2C(=O)c2c(NCCNCCO)ccc(NCCNCCO)c21 [Mitoxantrone] | Intermediate |  | 
CC(=O)O[C@H]1C(=O)[C@@]2(C)[C@H]([C@H](OC(=O)c3ccccc3)[C@]3(O)C[C@H](OC(=O)[C@H](O)[C@@H](NC(=O)c4ccccc4)c4ccccc4)C(C)=C1C3(C)C)[C@]1(OC(C)=O)CO[C@@H]1C[C@@H]2O [Taxol (Paclitaxel), Paclitaxel] | Sensitive | best drug in vitro | above-average activity
CCC1=C[C@@H]2CN(C1)Cc1c([nH]c3ccccc13)[C@@](C(=O)OC)(c1cc3c(cc1OC)N(C)[C@H]1[C@@](O)(C(=O)OC)[C@H](OC(C)=O)[C@]4(CC)C=CCN5CC[C@]31[C@@H]54)C2 [Vinorelbine (Navelbine), Vinorelbine] | Intermediate |  | 
Gemcitabine + Cisplatin | Intermediate |  | 

— patent US7674456B2, “Breast cancer cell lines and uses thereof” (priority 2004, dated 2010)
